Patent publication US10941187B2 (The United States of America, as represented by the …, priority 2001, dated 2021)
Entries after “also recorded” stand apart in the source; their conditions may differ. Ends that are not written are not given here.

Key:
RIN 1048-36 cells = assay: Insulin secretion in vitro in RIN 1048-36 cells; assay type: cell-based, rat; conditions: peptide 1×10−8 M, 5 mM glucose, 1 h; compared with GLP-1 and exendin-4
Experimental: Thereafter, they were preincubated for 2 periods of 30 min each with glucose-free buffer (containing mM: 140 NaCl, 5 KCl, 1 NaPO4, 1 MgSO4, 2 CaCl, 20 HEPES buffer (pH 7.4), and 0.1% bovine serum albumin) in a 37° C. humidified incubator. […] After 1 h the medium was removed and stored at −80° C. prior to quantification of insulin levels by EIA (Crystal Chem, Chicago Ill.), and the cells were lysed with HCl (300 μl, 0.1 M, 20 min, RT) for measurement of total protein using the Bradford method (Bio-Rad, Richmond, Calif.) with bovine γ-globulin as a standard.

[1] = system: fasted, diabetic Zucker rats; assay: Duration of in vivo insulinotropic action after intraperitoneal peptide; design: species or system rat; conditions: 0.4 nmol/kg i.p.
Experimental: The time-dependent duration of insulinotropic action was evaluated by quantifying plasma insulin and glucose levels in Zucker rats following intraperitoneal (i.p.) peptide administration. Specifically, after overnight fasting, diabetic male rats, approximately 400 g weight, were anesthetized with 50 mg/kg pentobarbital and a catheter was tied into their right femoral artery for blood collection. […] Blood, taken prior to peptide administration, at 30 and 60 min, and at 2, 4, 6 and 24 h, was drawn into heparinized tubes containing EDTA and aprotinin for insulin determination, and a separate sample was taken to measure glucose. Plasma was separated, removed and immediately frozen to −70° C. Thereafter insulin levels were quantified by using a rat insulin ELISA kit (Crystal Chem Inc., Chicago, Ill.) and plasma glucose was quantified by the glucose oxidase method.

[2] = system: Zucker fatty (fa/fa) and Wistar rats; assay: Blood glucose and insulin after subcutaneous injection; assay type: in vivo, rat; conditions: 24 nmol/kg s.c.
Experimental: Six-month old male Zucker fa/fa rats (Harlan, Indianapolis, Ind.) and six-month old Wistar rats were used in this study. They were allowed ad libitum access to chow and water and were on a 12 h light, 12 h dark cycle (lights on 0700 h). The bedding for the Zucker rats was a paper based product, “Carefresh” (Absorption Co., Belingham, Wash.). The Zucker rats were fasted on wire, in the absence of bedding, overnight before the experiment. Wistar rats were fasted on their normal bedding. General anaesthesia was induced by an intraperitoneal injection of pentobarbital (50 mg/kg).

PC12 cells [3] = assay: Inhibition of GLP-1, exendin-4 and NGF induced neurite outgrowth in PC12 cells; assay type: cell-based, rat; conditions: 48 h; PD98059 50 μM, LY294002 40 μM, H89 20 μM, or exendin (9-39) with exendin-4
Experimental: NGF at 50 ng/ml and forskolin (PKA activator) (20 μM) were used as positive controls in these treatments.

Aβ1-40 [4] = assay: Aβ1-40 sandwich ELISA of PC12 conditioned media; assay type: cell-based, rat; conditions: PC12 cells, relative to control cells
PC12 cells [5] = assay: Neurite outgrowth in PC12 cells; assay type: cell-based, rat; conditions: day 3
Experimental: Three dishes for each treatment condition were prepared. Treatments began 24 hours after seeding, once cells were well attached.
PC12 cells were grown on 60 mm dishes as above and cultured for four days. During this time neurite outgrowth was quantified daily. Five random fields of cells were evaluated per dish and the proportion of neurite-bearing cells was determined. Approximately 100 cells per field were scored for neurites equal to or greater in length than that of the cell body. A cell was only scored once, although it may have had more than one process per cell.

synaptophysin = assay: Synaptophysin expression in PC12 cells (Western blot); assay type: cell-based, rat; conditions: PC12 cell lysates
Experimental: The synaptophysin monoclonal antibody (Oncogene Research Products, San Diego Calif.), which stains neurosecretory vesicles of PC12 cells, was used. The membranes were blocked with 20 mM Tris, 500 mM NaCl pH 7.4, 1% (w/v) casein (BioRad, San Diego Calif.) at 37° C. for 1 hour. Primary antibody was diluted in block and incubated with the proteins overnight at 4° C. The membrane was vigorously washed with 20 mM Tris pH 7.4, 150 mM NaCl and 0.05% Tween-20 (TBST), three times for 15 minutes at room temperature. The peroxidase-linked secondary antibody in block was incubated with the membrane for 2 hours at room temperature. Peroxidase-linked anti-mouse IgM (Chemicon, Tenecula, Calif.) was used as the secondary antibody against synaptophysin. Excess antibody was washed off with three vigorous washes in TBST prior to incubation in ECL Plus (Amersham, Philadelphia, Pa.) for 5 minutes. The membrane was subsequently exposed to photographic film.

Aβ1-40 [6] = assay: Aβ1-40 in whole brain homogenates after i.c.v. infusion in control mice; assay type: in vivo, mouse; conditions: 2 μg NGF i.c.v., 48 h, p<0.01
Experimental: Lean db+/db+ control male mice (n=24) were anaesthetized with 50 mg/kg pentobarbitone and placed in a stereotaxic surgical frame with mouse adaptor (David Kopf Instruments, Tujunga, Calif.) using temporal bone cup holders. […] After 48 h all animals were sacrificed by cervical dislocation, the brains removed and rapidly frozen in liquid nitrogen. Brains were pulverized and stored at −80° C. prior to assaying for Aβ levels.
Equivalent volumes of conditioned media and whole brain homogenate were assayed for Aβ1-40 using a sandwich ELISA (Suzuki et. al., 1994). The monoclonal antibody BAN50 (raised against Aβ1-16) was used as the capture antibody for all species of Aβ (Aβ1-40 and Aβ1-42), and the monoclonal antibody BA27 was used to specifically detect Aβ1-40 levels. Levels of Aβ1-40 were expressed in pM concentrations for conditioned media samples and finol/g for the mouse brain homogenates, as deduced from the appropriate standard curve run in parallel with the assay.

PC12 cells [7] = assay: Bromodeoxyuridine incorporation in PC12 cells; conditions: day 1; GLP-1 33 μg/ml, NGF 50 ng/ml
Experimental: Immunocytochemistry with an anti-BrdU antibody after labeling was used to identify cells that were actively replicating DNA at the time of labeling. […] 10 μM BrdU was added to the culture medium for 6 hours prior to fixing in 4% paraformaldehyde, to label cellular DNA. The remainder of the method was followed according to the proliferation kit (Roche, Indianapolis, Ind.). […] BrdU incorporation was quantitated on days 1, 2 and 3 of treatment. Three dishes for each treatment condition were counted and expressed as the percentage of labeled cells relative to the total number of cells.

[8] = system: β-amyloid precursor protein (βAPP); assay: Western immunoblot of βAPP (cell lysates) and sAPP (conditioned media) in PC12 cells; conditions: day 3, relative to untreated

CC[C@H](C)[C@H](NC(=O)[C@H](Cc1ccccc1)NC(=O)[C@H](CCC(=O)O)NC(=O)[C@H](CCCCN)NC(=O)[C@H](C)NC(=O)[C@H](C)NC(=O)[C@H](CCC(N)=O)NC(=O)CNC(=O)[C@H](CCC(=O)O)NC(=O)[C@H](CC(C)C)NC(=O)[C@H](Cc1ccc(O)cc1)NC(=O)[C@H](CO)NC(=O)[C@H](CO)NC(=O)[C@@H](NC(=O)[C@H](CC(=O)O)NC(=O)[C@H](CO)NC(=O)[C@@H](NC(=O)[C@H](Cc1ccccc1)NC(=O)[C@@H](NC(=O)CNC(=O)[C@H](CCC(=O)O)NC(=O)CNC(=O)[C@@H](N)Cc1c[nH]cn1)[C@@H](C)O)[C@@H](C)O)C(C)C)C(=O)N[C@@H](C)C(=O)N[C@@H](Cc1c[nH]c2ccccc12)C(=O)N[C@@H](CC(C)C)C(=O)N[C@H](C(=O)N[C@@H](CCCCN)C(=O)NCC(=O)N[C@@H](CCCNC(=N)N)C(N)=O)C(C)C [GLP-1 Gly^8]
induction of insulin secretion (RIN 1048-36 cells): induced insulin secretion slightly more than exendin-4
potency on plasma insulin versus equimolar standard [1]: more potent than equimolar GLP-1
hypoglycemia in Zucker rats ([2]; fasted Zucker fatty rats): drop in blood glucose into the hypoglycemic range
blood glucose ([2]; fasted rats, monitored 8 h): rapidly lowered blood glucose

O=S(=O)(NCCNC/C=C/c1ccc(Br)cc1)c1cccc2cnccc12 [H89]
effect on GLP-1, exendin-4 or NGF induced neurite outgrowth (PC12 cells [3]): some inhibitory effects on GLP-1 and NGF-induced neurite outgrowth

COc1cccc(-c2cc(=O)c3ccccc3o2)c1N [PD98059]
effect on GLP-1, exendin-4 or NGF induced neurite outgrowth (PC12 cells [3]): reduced GLP-1 and exendin-4 induced neurite outgrowth

exendin (9-39)
effect on GLP-1, exendin-4 or NGF induced neurite outgrowth (PC12 cells [3]): failed to initiate neurite extension

nerve growth factor [NGF]
Aβ1-40 levels in conditioned media (Aβ1-40 [4]): significant increases in Aβ1-40 levels
increase in neurite projections from controls (PC12 cells [5]; NGF 10 ng/ml): 550%
increase in neurite projections from controls (PC12 cells [5]; NGF 30 ng/ml): 720%
maximal decrease in synaptophysin expression relative to control cells (synaptophysin): approximately 70%
synaptophysin expression (synaptophysin; relative to untreated): dramatically reduced the expression of the synaptophysin protein
reduction of Aβ1-40 levels compared to vehicle (Aβ1-40 [6]): 40%
increased incorporation of BrdU relative to untreated (PC12 cells [7]): 9%
intracellular levels of βAPP (cell lysates) [8]: dramatic increases in intracellular levels of βAPP

peptide 8: GLP-1 with A to G substitution at position 8 and V to L at position 16 (SEQ ID NO:5) (HGEGTFTSDLSSYLEGQAAKEFIAWLVKGR)
induction of insulin secretion (RIN 1048-36 cells): retained the ability to induce insulin secretion; also recorded: substantially greater effect on insulin secretion than either GLP-1 or exendin-4

peptide 9: GLP-1 with A/G, V/L, S/K, Y/Q, L/M substitutions at position 8, 16, 18, 19, 20 (SEQ ID NO: 6) (HGEGTFTSDLSKQMEGQAAKEFIAWLVKGR)
induction of insulin secretion (RIN 1048-36 cells): retained the ability to induce insulin secretion; also recorded: restores activity

peptide 15: truncation of exendin-4 including residues up to and including residue 43 (SEQ ID NO:12)
induction of insulin secretion (RIN 1048-36 cells): inducing effect that exceeded that of exendin-4 or GLP-1

peptide 30: peptide 1 with neutral serine replaced by basic lysine in position 18 (SEQ ID NO:27) (HGEGTFTSDVSKYLEGQAAKEFIAWLVKGR)
induction of insulin secretion (RIN 1048-36 cells): loss of activity

peptide 36: exendin-4 with arginine in position 36 and position 30 modified from glutamic acid to alanine (SEQ ID NO:33) (HGEGTFTSDLSKQMEEEAVREFIAWLKNGR; not fully specified)
induction of insulin secretion (RIN 1048-36 cells): well tolerated
